Reference: patent publication US9546179B2, “Heterocycle amido alkyloxy substituted quinazoline derivative and use thereof” (priority 2011, dated 2017)

Biological target: T1, receptor tyrosine kinase EGFR (Homo sapiens, UniProt P00533)
T1 construct: purchased Shanghai 3bio Technology Co., Ltd. Lot No. 4018780925
Experiment: Inhibitory effect on receptor tyrosine kinase EGFR (ELISA, Poly(Glu, Tyr)4:1, PY99 antibody)
Type: biochemical
Conditions: ATP 4 μM, 1 hour at 37° C.
Procedure: Poly(Glu, Tyr)4:1 was diluted into 100 μg/ml by PBS without potassium. Enzyme label plate was coated with 37 μl/well at 37° C. overnight,
The liquid in the wells was removed. The plate was rinsed by T-PBS for 5 minutes, and dried at 37° C. after repeated 3 times.
The testing sample was diluted to the concentration concerned by reaction buffer solution, and added into the wells of the coated enzyme label plate. The concentration diluted should realize 1.0000 μg/ml, 0.1250 μg/ml, 0.0156 μg/ml, 0.00195 μg/ml and 0.00024 μg/ml in the 100 μl reaction.
Adding in ATP solution (4 μM of final concentration) diluted by reaction buffer solution,
Finally, the tyrosine kinase diluted by reaction buffer solution was added, and forming the reaction with 100 μl total volume.
Meanwhile, negative control wells and enzyme-free control wells were prepared. The reaction was kept in the dark wet box for 1 hour at 37° C. The plate was rinsed by T-PBS for three times after the reaction ended, and blocked by 1% BSA […] for 30 min, and then, PY99 antibody (1:1000 diluted by 0.05% PBST with 1% BSA) was added in 100 μl/well. After incubated at 37° C. for 30 minutes, the plate was rinsed by T-PBS for three times, and the goat anti-mouse IgG marked with HRP (1 mg/ml 1:1000 diluted by 0.05% PBST with 1% BSA) was then added in 100 μl/well. After incubated at 37° C. for 30 minutes, the plate was rinsed by T-PBS for three times.
Colorimetric solution OPD was added in 100 μl/well for 20 minutes' reaction in the dark side at the room temperature. Colorimetric substrate solution OPD was the solution of 0.1 mol/L citric acid-disodium hydrogen phosphate buffer (pH 5.0) with 20 mmol/L OPD and 12 mmol/L H2O2 (freshly prepared when using).
50 μl of 2M H2SO4 (2 mol/L sulfuric acid containing 0.1 mol/L sodium sulfate) was added in to terminate the reaction, and the A492 value was read with adjustable wavelength micro late enzyme-labeling instrument VERSAmax.
The inhibition rate of samples is calculated by the following formula: […]

T1 sequence (P00533 25-1210): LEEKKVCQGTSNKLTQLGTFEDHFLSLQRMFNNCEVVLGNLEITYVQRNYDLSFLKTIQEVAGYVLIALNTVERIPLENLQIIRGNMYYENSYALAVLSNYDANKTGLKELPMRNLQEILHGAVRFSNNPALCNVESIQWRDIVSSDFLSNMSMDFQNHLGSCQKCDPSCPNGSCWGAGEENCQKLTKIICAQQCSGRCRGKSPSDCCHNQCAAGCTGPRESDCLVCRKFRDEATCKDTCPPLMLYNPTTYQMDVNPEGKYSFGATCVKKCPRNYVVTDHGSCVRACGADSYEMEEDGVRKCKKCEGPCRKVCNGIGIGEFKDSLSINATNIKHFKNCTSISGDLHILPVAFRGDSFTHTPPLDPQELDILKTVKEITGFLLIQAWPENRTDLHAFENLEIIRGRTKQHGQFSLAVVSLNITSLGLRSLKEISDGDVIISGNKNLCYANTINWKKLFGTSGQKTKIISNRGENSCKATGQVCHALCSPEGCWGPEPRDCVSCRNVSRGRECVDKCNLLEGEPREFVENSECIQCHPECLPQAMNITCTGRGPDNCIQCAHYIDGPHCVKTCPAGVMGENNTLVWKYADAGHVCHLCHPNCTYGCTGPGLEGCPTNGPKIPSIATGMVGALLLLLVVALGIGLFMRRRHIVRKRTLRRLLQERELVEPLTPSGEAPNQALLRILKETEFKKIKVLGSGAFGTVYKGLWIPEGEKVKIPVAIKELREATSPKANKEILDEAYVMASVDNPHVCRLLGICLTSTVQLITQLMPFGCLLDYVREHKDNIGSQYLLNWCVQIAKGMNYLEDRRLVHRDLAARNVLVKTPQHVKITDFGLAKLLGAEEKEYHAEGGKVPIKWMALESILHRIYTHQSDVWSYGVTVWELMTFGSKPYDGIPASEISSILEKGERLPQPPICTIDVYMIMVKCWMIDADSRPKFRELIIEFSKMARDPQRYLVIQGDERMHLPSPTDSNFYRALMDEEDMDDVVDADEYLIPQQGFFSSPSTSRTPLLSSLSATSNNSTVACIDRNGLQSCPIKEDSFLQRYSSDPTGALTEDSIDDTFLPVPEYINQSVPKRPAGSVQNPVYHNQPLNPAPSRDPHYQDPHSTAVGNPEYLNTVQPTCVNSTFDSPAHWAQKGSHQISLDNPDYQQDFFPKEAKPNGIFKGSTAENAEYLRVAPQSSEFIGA

| Compound | IC50 |
| --- | --- |
| C#Cc1cccc(Nc2ncnc3cc(OC)c(OCCCN4CCC5(CCOCC5)C4)cc23)c1 [Example 41, 4-(3′-ethynylphenylamino)-6-[3-(8-oxa-2-azaspiro[4.5]decane-2-yl)-propoxy]-7-methoxyquinazoline] | 100 to 1000 nM |
| C#Cc1cccc(Nc2ncnc3cc(OC)c(OCCCN4C5CCC4COC5)cc23)c1 [Example 42, 4-(3′-ethynylphenylamino)-6-[3-(3-oxa-8-azabicyclo[3.2.1]octane-8-yl)-propoxy]-7-methoxyquinazoline] | 100 to 1000 nM |
| COc1cc2ncnc(Nc3ccc(F)c(Cl)c3)c2cc1OCCN1CCC2(CCNC2=O)C1 (stereo not shown) [Example 55, 4-(3′-chloro-4′-fluorophenylamino)-6-[2-(2,7-diazaspiro[4.4]-nonane-1-ketone-7-yl)-oxethyl]-7-methoxyquinazoline] | 100 to 1000 nM |
| COc1cc2ncnc(Nc3ccc(F)c(Cl)c3)c2cc1OCCN1CCC2(CC1)CC(=O)N(C)C2 [Example 56, 4-(3′-chloro-4′-fluorophenylamino)-6-[2-(2-methyl-2,8-diazaspiro[4.5]decane-2-ketone-8-yl)-oxethyl]-7-methoxyquinazoline] | > 1000 nM |
| COc1cc2ncnc(Nc3ccc(F)c(Cl)c3)c2cc1OCCN1CCC2(CC1)CNC(=O)O2 [Example 58, 4-(3′-chloro-4′-fluorophenylamino)-6-[2-(1-oxa-3,8-diazaspiro[4.5]decane-2-ketone-8-yl)-oxethyl]-7-methoxyquinazoline] | 100 to 1000 nM |
| COc1cc2ncnc(Nc3ccc(F)c(Cl)c3)c2cc1OCCN1CC2(CNC(=O)O2)C1 [Example 60, 4-(3′-chloro-4′-fluorophenylamino)-6-[2-(5-oxa-2,7-diazaspiro[3.4]octane-6-ketone-2-yl)-oxethyl]-7-methoxyquinazoline] | 100 to 1000 nM |
| COc1cc2ncnc(Nc3ccc(F)c(Cl)c3)c2cc1OCCN1CC2(COC2)C1 [Example 62, 4-(3′-chloro-4′-fluorophenylamino)-6-[2-(2-oxa-6-azaspiro[3.3]heptane-6-yl)-oxethyl]-7-methoxyquinazoline] | 100 to 1000 nM |
| COc1cc2ncnc(Nc3ccc(F)c(Cl)c3)c2cc1OCCN1CCC2(CC1)CNC(=O)C2 [Example 63, 4-(3′-chloro-4′-fluorophenylamino)-6-[2-(2,8-diazaspiro[4.5]decane-3-ketone-8-yl)-oxethyl]-7-methoxyquinazoline] | 100 to 1000 nM |
| COc1cc2ncnc(Nc3cc(Cl)ccc3F)c2cc1OCCCN1CCC2(CCN(C)C2)C1 (stereo not shown) [Example 64, 4-(5′-chloro-22′-fluorophenylamino)-6-[3-(7-methyl-2,7-diazaspiro[4.4]nonane-2-yl)-propoxy]-7-methoxyquinazoline] | 10 to 100 nM |
| COc1cc2ncnc(Nc3cc(Cl)ccc3F)c2cc1OCCCN1CCC2(COC2)C1 [Example 65] | 10 to 100 nM |
| C#Cc1cccc(Nc2ncnc3cc(OC)c(OCCCN4CCC5(CCN(C)C5)C4)cc23)c1 (stereo not shown) [Example 68, 4-(3′-ethynylphenylamino)-6-[3-(7-methyl-2,7-diazaspiro[4.4]nonyl)-propoxy]-7-methoxyquinazoline] | 10 to 100 nM |
| C#Cc1cccc(Nc2ncnc3cc(OC)c(OCCCN4CCC5(CCNC5=O)C4)cc23)c1 (stereo not shown) [Example 70, 4-(3′-ethynylphenylamino)-6-[3-(2,7-diazaspiro[4.4]-nonane-1-ketone-7-yl)-propoxy]-7-methoxyquinazoline] | 10 to 100 nM |
| C#Cc1cccc(Nc2ncnc3cc(OC)c(OCCCN4CCC5(CCN(C)C5=O)C4)cc23)c1 (stereo not shown) [Example 71, 4-(3′-ethynylphenylamino)-6-[3-(2-methyl-2,7-diazaspiro[4.4]-nonane-1-ketone-7-yl)-propoxy]-7-methoxyquinazoline] | 10 to 100 nM |
| C#Cc1cccc(Nc2ncnc3cc(OC)c(OCCCN4CCC5(CCNC5=O)CC4)cc23)c1 [Example 72, 4-(3′-ethynylphenylamino)-6-[3-(2,8-diazaspiro[4.5]decane-1-ketone-8-yl)-propoxy]-7-methoxyquinazoline] | 10 to 100 nM |
| C#Cc1cccc(Nc2ncnc3cc(OC)c(OCCCN4CCC5(CC4)CC(=O)N(C)C5)cc23)c1 [Example 73, 4-(3′-ethynylphenylamino)-6-[3-(2-methyl-2,8-diazaspiro[4.5]decane-3-ketone-8-yl)-propoxy]-7-methoxyquinazoline] | 10 to 100 nM |
| C#Cc1cccc(Nc2ncnc3cc(OC)c(OCCCN4CCC5(CCC(=O)N5)CC4)cc23)c1 [Example 74, 4-(3′-ethynylphenylamino)-6-[3-(1,8-diazaspiro[4.5]decane-2-ketone-8-yl)-propoxy]-7-methoxyquinazoline] | 10 to 100 nM |
| C#Cc1cccc(Nc2ncnc3cc(OC)c(OCCCN4CCC5(COC5)C4)cc23)c1 [Example 75, 4-(3′-ethynylphenylamino)-6-[3-(2-oxa-6-azaspiro[3.4]octane-6-yl)-propoxy]-7-methoxyquinazoline] | 10 to 100 nM |
| COc1cc2ncnc(Nc3ccc(F)c(Cl)c3)c2cc1OCCCN1CCC2(CCN(C)C2)C1 (stereo not shown) [Example 76, 4-(3′-chloro-4′-fluorophenylamino)-6-[3-(7-methyl-2,7-diazaspiro[4.4]nonane-2-yl)-propoxy]-7-methoxyquinazoline] | 10 to 100 nM |
| COc1cc2ncnc(Nc3ccc(F)c(Cl)c3)c2cc1OCCCN1CCC2(CCCN(C(=O)OC(C)(C)C)C2)C1 (stereo not shown) [Example 77, 4-(3′-chloro-4′-4-fluorophenylamino)-6-[3-(7-tertbutyloxycarbonyl-2,7-diazaspiro[4.5]decane-2-yl)-propoxy]-7-methoxyquinazoline] | > 1000 nM |

Next, values leading:

| IC50 | Compound |
| --- | --- |
| 10 to 100 nM | C#Cc1cccc(Nc2ncnc3cc(OC)c(OCCCN4CC5(CCOCC5)C4)cc23)c1 [Example 39, 4-(3′-ethynylphenylamino)-6-[3-(7-oxa-2-azaspiro[3.5]nonane-2-yl)-propoxy]-7-methoxyquinazoline] |
| 10 to 100 nM | C#Cc1cccc(Nc2ncnc3cc(OC)c(OCCCN4CCC5(CCOC5)C4)cc23)c1 (stereo not shown) [Example 40, 4-(3′-ethynylphenylamino)-6-[3-(2-oxa-7-azaspiro[4.4]-nonane-7-yl)-propoxy]-7-methoxyquinazoline] |
| 10 to 100 nM | C#Cc1cccc(Nc2ncnc3cc(OC)c(OCCCN4CCC5(CC4)CNC(=O)C5)cc23)c1 [Example 43, 4-(3′-ethynylphenylamino)-6-[3-(2,8-diazaspiro[4.5]decane-3-ketone-8-yl)-propoxy]-7-methoxyquinazoline] |
| 10 to 100 nM | C#Cc1cccc(Nc2ncnc3cc(OC)c(OCCCN4CCC5(CC4)CCN(C)C5=O)cc23)c1 [Example 44, 4-(3′-ethynylphenylamino)-6-[3-(2-methyl-2,8-diazaspiro[4.5]decane-3-ketone-8-yl)propoxy]-7-methoxyquinazoline] |
| 10 to 100 nM | C#Cc1cccc(Nc2ncnc3cc(OC)c(OCCCN4CC5(CNC(=O)C5)C4)cc23)c1 [Example 45, 4-(3′-ethynylphenylamino)-6-[3-(2,6-diazaspiro[3.4]octane-7-ketone-2-yl)-propoxy]-7-methoxyquinazoline] |
| 10 to 100 nM | C#Cc1cccc(Nc2ncnc3cc(OC)c(OCCCN4CCC5(CC4)CNC(=O)O5)cc23)c1 [Example 46, 4-(3′-ethynylphenylamino)-6-[3-(1-oxa-3,8-diazaspiro[4.5]decane-2-ketone-8-yl)-propoxy]-7-methoxyquinazoline] |
| 10 to 100 nM | C#Cc1cccc(Nc2ncnc3cc(OC)c(OCCCN4CCC5(C4)CN(C)C(=O)O5)cc23)c1 (stereo not shown) [Example 47, 4-(3′-ethynylphenylamino)-6-[3-(3-methyl-1-oxa-3,7-diazaspiro[4.4]nonane-2-ketone-7-yl)-propoxy]-7-methoxyquinazoline] |
| 0.1 to 10 nM | C#Cc1cccc(Nc2ncnc3cc(OC)c(OCCCN4CCC5(CCN(C(C)=O)C5)C4)cc23)c1 (stereo not shown) [Example 51, 4-(3′-ethynylphenylamino)-6-[3-(7-acetyl-2,7-diazaspiro[4.4]-nonane-2-yl)-propoxy]-7-methoxyquinazoline] |
| 10 to 100 nM | COc1cc2ncnc(Nc3ccc(F)c(Cl)c3)c2cc1OCCN1CC2(CCOCC2)C1 [Example 53, 4-(3′-chloro-4′-fluorophenylamino)-6-[3-(7-oxa-2-azaspiro[3.5]nonane-2-yl)-oxethyl]-7-methoxyquinazoline] |
| 10 to 100 nM | COc1cc2ncnc(Nc3ccc(F)c(Cl)c3)c2cc1OCCN1CCC2(C1)CN(C)C(=O)O2 (stereo not shown) [Example 59, 4-(3′-chloro-4′-fluorophenylamino)-6-[2-(3-methyl-1-oxa-3,7-diazaspiro[4.4]nonane-2-ketone-7-yl)-oxethyl]-7-methoxyquinazoline] |
| 10 to 100 nM | COc1cc2ncnc(Nc3ccc(F)c(Cl)c3)c2cc1OCCN1CC2(C1)CN(C)C(=O)O2 [Example 61, 4-(3′-chloro-4′-fluorophenylamino)-6-[2-(7-methyl-5-oxa-2,7-diazaspiro[3.4]octane-6-ketone-2-yl)-oxethyl]-7-methoxyquinazoline] |
| 0.1 to 10 nM | COc1cc2ncnc(Nc3ccc(F)c(Cl)c3)c2cc1OCCCN1CCC2(CC1)CNC(=O)C2 [Example 79] |
